Assay [1] addresses Alpha-synuclein (Homo sapiens) (UniProt P37840). Briefly: Inhibition of human alpha-syn expressed in Escherichia coli BL21 (DE3) cells aggregation incubated for 36 hrs by ThT dye based fluorescence assay.
Assay [2] deals with Staphylococcus aureus. In words: Antibacterial activity against methicillin-susceptible Staphylococcus aureus ATCC 25923 incubated for 18 hrs by microdilution method. In kind it is functional, organism-based.
The subject of assay [3] is Staphylococcus aureus. In words: Antibacterial activity against methicillin- resistant Staphylococcus aureus ATCC 43300 incubated for 18 hrs by microdilution method. Type of assay: functional, organism-based. A general note: Broth dilution looks for growth in wells or tubes with falling amounts of substance.
In the next assay the test system is Pseudomonas aeruginosa. Briefly: Antibacterial activity against Pseudomonas aeruginosa ATCC 27853 incubated for 18 hrs by microdilution method. In kind it is functional, organism-based.

Activity calls are given as the source filed them. No cut-off for these calls is given here.

Consider `CCOC(=O)C1(Cc2ccccc2)OC(=O)C(O)=C1c1ccc(OC)cc1` (configuration not stated), for which the inhibition result in assay [1] is “inactive”.

For the compound `CCOC(=O)C1(Cc2ccc(C)cc2)OC(=O)C(O)=C1c1ccc(C)cc1` (configuration not stated), the inhibition entry in assay [1] is “inactive”.

In the case of `COC1=C(c2cc(Br)c(O)c(Br)c2)[C@H](Cc2ccc(OC)c(Br)c2)OC1=O`, the outcome in the assay with Staphylococcus aureus [2], in the assay on Staphylococcus aureus [3] and in the assay on Pseudomonas aeruginosa was inactive.

Regarding `CCOC(=O)C1(Cc2ccc(OC)cc2)OC(=O)C(O)=C1c1ccc(OC)cc1` (configuration not stated), in assay [1], the inhibition entry is “inactive”.

In the case of `CCOC(=O)C1(Cc2ccc(OC)cc2)OC(=O)C(O)=C1c1ccccc1` (configuration not stated), the inhibition result in assay [1] was “inactive”.

Regarding `CCOC(=O)C1(Cc2ccccc2)OC(=O)C(O)=C1c1ccccc1` (configuration not stated), in assay [1], the inhibition result was “inactive”.

In the case of `CCOC(=O)C1(Cc2cccc(OC)c2)OC(=O)C(O)=C1c1cccc(OC)c1` (configuration not stated), the inhibition result in assay [1] is “inactive”.

In the case of `CCOC(=O)C1(Cc2ccc(Cl)cc2)OC(=O)C(O)=C1c1ccc(Cl)cc1` (configuration not stated), the inhibition entry in assay [1] was “inactive”.

`CCCC(C)CC1(C(=O)OCC)OC(=O)C(O)=C1c1ccc(OC)cc1` (configuration not stated): the inhibition result in assay [1] was “inactive”.

For `COC1=C(c2cc(Br)c(O)c(Br)c2)[C@H](Cc2cc(Br)c(OC)c(Br)c2)OC1=O`, the outcome in the assay with Staphylococcus aureus [2], in the assay with Staphylococcus aureus [3] and in the assay with Pseudomonas aeruginosa was inactive.

As to `COc1ccc(C[C@H](O)C(=O)c2cc(Br)c(O)c(Br)c2)cc1Br`, the result with Staphylococcus aureus [2], in the assay on Staphylococcus aureus [3] and with Pseudomonas aeruginosa was inactive.

(Values after ChEMBL document CHEMBL5252574, “α-Synuclein Aggregation Inhibitory Procerolides and Diphenylalkanes from the Ascidian Polycarpa procera” (J Nat Prod, 2023).)
